Source: US3988476A, “Pharmaceutical compositions and methods of treating allergic conditions utilizing 2-nitroindane-1,3-dione derivatives as the active agent” (Beecham Group Limited, priority 1972, dated 1976)

Tested on: PCA response
Assay: Rat Passive Cutaneous Anaphylaxis (PCA) test, ovalbumin challenge
Type: in vivo, Wistar rats
Settings: for % Inhibition of PCA response: 34 mg/kg
Description: All of the 2-nitro indane-1,3-dione prepared in the preceding Examples were submitted for biological testing. The test system was the Rat Passive Cutaneous Anaphylaxis (PCA) test described below in (ii).
Male Wister rats of 250- 300 g, were injected intraperitoneally with 0.5 ml of Bordatella pertussis vaccine (containing 4× 10^10 dead organism per ml) and subcutaneously with 0.5 ml of an emulsion of 100 mg. of ovalbumin in 2 ml of saline and 3 ml of incomplete Freunds' adjuvant. Rats were bled by cardiac puncture on day 18, the blood was pooled and separated and serum stored at -20° and thawed only once before use.
0.1 ml of each of six twofold serial dilutions of the serum in 0.9% saline were injected intradermally into separate sites on the shaved dorsal surface of 250-350 g. Wistar rats. 72 hours later the animals were challenged by i.v. injection of 0.3 ml of 1% ovalbumin mixed with 0.1 ml of a 5% solution of pontamine sky blue dye both in isotonic saline buffered with pH. 7.2 Sorenson buffer (P.B.S.). The rats were killed after 20 minutes and the diameter of the blue wheals at the antibody injection sites were measured. The starting dilution of the serum was adjusted so that there was no response, after challenge, at the site of injection of the highest dilution and a maximum response at the lowest dilution.
Amounts of the compounds were administered to rats each amount to a test group of six animals at a specified time prior to intravenous challenge with ovalbumin.
For those compounds having insoluble sodium salts, the salts were isolated by reaction of the free nitro compound with 2.5N sodium hydroxide and the filtered sodium washed free of alkali with water. The dried salts were then administered as a suspension in 1% methyl cellulose.

[1] = 25 mg/kg, 0 min between dosing and challenge, solution of Na salt
[2] = 25 mg/kg, 30 min between dosing and challenge, solution of Na salt
[3] = 100 mg/kg, 0 min between dosing and challenge, solution of Na salt
[4] = 100 mg/kg, 30 min between dosing and challenge, solution of Na salt
[5] = 25 mg/kg, 60 min between dosing and challenge, solution of Na salt
[6] = 100 mg/kg, 60 min between dosing and challenge, solution of Na salt
[7] = 25 mg/kg, 0 min between dosing and challenge, suspension of Na salt in 1% methyl cellulose
[8] = 25 mg/kg, 60 min between dosing and challenge, suspension of Na salt in 1% methyl cellulose
[9] = 100 mg/kg, 0 min between dosing and challenge, suspension of Na salt in 1% methyl cellulose
[10] = 100 mg/kg, 60 min between dosing and challenge, suspension of Na salt in 1% methyl cellulose

Structure (SMILES)	% INHIBITION OF PCA RESPONSE [1] [%]	% INHIBITION OF PCA RESPONSE [2] [%]	% INHIBITION OF PCA RESPONSE [3] [%]	% INHIBITION OF PCA RESPONSE [4] [%]	% INHIBITION OF PCA RESPONSE [7] [%]	% INHIBITION OF PCA RESPONSE [8] [%]	% INHIBITION OF PCA RESPONSE [9] [%]	% INHIBITION OF PCA RESPONSE [10] [%]	further results
COc1ccc(C)c2c1C(=O)C([N+](=O)[O-])C2=O (stereo not drawn) [4-Methoxy-7-methyl-2-nitro indane1,3-dione]	34	62	36	44	–	–	–	–	–
O=C1c2cccc(-c3ccccc3)c2C(=O)C1[N+](=O)[O-] (stereo not drawn) [2-nitro-4-phenyl indane 1,3 indione, 2-Nitro-4-Phenyl indane-1,3-dione]	12	–	8	–	–	–	–	–	% INHIBITION OF PCA RESPONSE [5]: 22%; % INHIBITION OF PCA RESPONSE [6]: 24%
Cc1ccc2c(c1)C(=O)C([N+](=O)[O-])C2=O (stereo not drawn) [5-methyl-2-nitroindane-1,3-dione, 5-Methyl-2-nitroindane-1,3-dione]	66	44	100	47	–	–	–	–	–
COc1cccc2c1C(=O)C([N+](=O)[O-])C2=O (stereo not drawn) [4-methoxy-2-nitroindane-1,3-dione, 4-Methoxy-2-nitro indane-1,3-dione]	–	–	–	–	-2	25	18	36	–
O=C1c2cccc(Br)c2C(=O)C1[N+](=O)[O-] (stereo not drawn) [4-bromo-2-nitroindane-1,3-dione, 4-Bromo-2-nitro indane-1,3dione]	–	–	–	–	8	24	-4	70	–
CCc1cc(OC)c2c(c1)C(=O)C([N+](=O)[O-])C2=O (stereo not drawn) [6-Ethyl-4-methoxy-2-nitro indane-1,3-dione]	66	37	91	32	–	–	–	–	–
O=C1c2cc3ccccc3cc2C(=O)C1[N+](=O)[O-] [2-nitro-benz[f] indane 1,3-dione, 2-Nitro benz[f] indane-1,3-dione]	–	–	–	–	100	37	100	72	–
CCCOc1cccc2c1C(=O)C([N+](=O)[O-])C2=O (stereo not drawn) [4-n-propyloxy 2-nitroindane 1,3-dione, 2-Nitro-4-n-Propyloxy indane-1,3-dione]	77	37	30	37	–	–	–	–	–
CCc1cccc2c1C(=O)C([N+](=O)[O-])C2=O (stereo not drawn) [4-ethyl-2-nitroindane-1,3-dione, 4-Ethyl-2-nitro indane-1,3-dione]	–	–	–	–	-5	23	1	25	–
O=C1c2ccc(Br)cc2C(=O)C1[N+](=O)[O-] (stereo not drawn) [5-bromo-2-nitroindane-1,3-dione, 5-Bromo-2-nitro indane-1,3-dione]	46	–	30	–	–	–	–	–	% INHIBITION OF PCA RESPONSE [5]: 87%; % INHIBITION OF PCA RESPONSE [6]: 64%
O=C1c2ccc3c(c2C(=O)C1[N+](=O)[O-])CCC3 (stereo not drawn) [4,5-cyclopentano 2-nitroindane 1,3-dione, 4,5-Cyclopentano-2-nitro indane-1,3-dione]	–	–	–	–	5	34	26	28	–
O=C1c2ccc(-c3ccccc3)cc2C(=O)C1[N+](=O)[O-] (stereo not drawn) [2-nitro-5-phenyl indane-1,3-dione, 2-Nitro-5-phenyl indane-1,3-dione]	–	–	–	–	58	56	82	36	–
Cc1ccc(C)c2c1C(=O)C([N+](=O)[O-])C2=O [4,7-dimethyl-2-nitroindane-1,3-dione, 4,7-Dimethyl-2-nitro-indane-1,3-dione]	–	–	–	–	35	16	46	8	–
COc1cc(C)cc2c1C(=O)C([N+](=O)[O-])C2=O (stereo not drawn) [4-Methoxy-6-methyl-2-nitro indane-1,3-dione]	34	31	80	24	–	–	–	–	–
Cc1cc(C)c2c(c1)C(=O)C([N+](=O)[O-])C2=O (stereo not drawn) [4,6-dimethyl-2-nitroindane-1,3-dione, 4,6-Dimethyl-2-nitro-indane-1,3-dione]	58	27	–	–	–	–	–	–	–
O=C1c2cccc(F)c2C(=O)C1[N+](=O)[O-] (stereo not drawn) [4-fluoro-2-nitroindane-1,3-dione, 4-Fluoro-2-nitro indane-1,3-dione]	48	8	86	30	–	–	–	–	–
Cc1cc2c(cc1C)C(=O)C([N+](=O)[O-])C2=O [5,6-dimethyl-2-nitroindane-1,3-dione, 5,6-Dimethyl-2-nitro-indane-1,3-dione]	–	–	–	–	92	48	73	54	–
CCCCOc1cccc2c1C(=O)C([N+](=O)[O-])C2=O (stereo not drawn) [4-n-butyloxy-2-nitroindane 1,3-dione, 4-n-Butyloxy-2-nitro indane-1,3-dione]	29	–	63	–	–	–	–	–	% INHIBITION OF PCA RESPONSE [5]: 43%; % INHIBITION OF PCA RESPONSE [6]: 50%
Cc1cccc2c1C(=O)C([N+](=O)[O-])C2=O (stereo not drawn) [4-methyl-2-nitroindane-1,3-dione, 4-Methyl-2-nitroindane-1,3-dione]	–	–	–	–	2	33	6	57	–
CCOc1cccc2c1C(=O)C([N+](=O)[O-])C2=O (stereo not drawn) [4-ethoxy-2-nitroindane-1,3-dione, 4-Ethoxy-2-nitro indane-1,3-dione]	13	68	76	55	–	–	–	–	–
CC(C)Oc1cccc2c1C(=O)C([N+](=O)[O-])C2=O (stereo not drawn) [4-isopropyloxy-2-nitroindane 1,3-dione, 4Isopropyloxy-2-nitro-indane-1,3-dione]	–	–	–	–	23	–	49	–	% INHIBITION OF PCA RESPONSE (25 mg/kg, 30 min between dosing and challenge, suspension of Na salt in 1% methyl cellulose): 36%; % INHIBITION OF PCA RESPONSE (100 mg/kg, 30 min between dosing and challenge, suspension of Na salt in 1% methyl cellulose): 51%
CC(C)COc1cccc2c1C(=O)C([N+](=O)[O-])C2=O (stereo not drawn) [4-isobutyloxy-2-nitroindane 1,3-dione, 4-Isobutyloxy-2-nitro indane-1,3-dione]	61	28	78	41	–	–	–	–	–
O=C1c2ccc3c(c2C(=O)C1[N+](=O)[O-])CCCC3 (stereo not drawn) [4,5-cyclohexano 2-nitroindane 1,3-dione, 4,5-Cyclohexano-2-nitroindane-1,3-dione]	–	–	–	–	–	–	–	–	% Inhibition of PCA response (0 min between dosing and challenge, suspension of Na salt in 1% methyl cellulose): 7%; % Inhibition of PCA response (60 min between dosing and challenge, suspension of Na salt in 1% methyl cellulose): 32%
O=C1c2ccc3ccccc3c2C(=O)C1[N+](=O)[O-] (stereo not drawn) [2-nitrobenz(e) indane-1,3-dione, 2-Nitro benz(e)indane-1,3-dione]	–	–	–	–	16	50	13	47	–
O=C1c2c(Cl)c(Cl)c(Cl)c(Cl)c2C(=O)C1[N+](=O)[O-] [2-Nitro-4,5,6,7-tetrachloro indane-1,3-dione]	-13	–	-3	–	–	–	–	–	% INHIBITION OF PCA RESPONSE [5]: 9%; % INHIBITION OF PCA RESPONSE [6]: 7%
